No end group written: not given here.
Test system: RAW 264.7 macrophages
Experiment: Cytokines in supernatants of LPS-stimulated macrophages
Type: cell-based, mouse
Details: 10 ng/ml E. coli LPS
Method: RAW 264.7 macrophages were stimulated with 10 ng/ml E. coli LPS in combination with indicated concentrations of the two peptides. (B) Similar as above, but using P. aeruginosa LPS(C) KYE28 reduced TNF-αproduction, MCP-1 and IL-10 production in macrophages. RAW 264. 7 cells were stimulated with 10 ng/ml E. coli LPS and cytokines were analysed in the cell supernatants
The cytokines IL-6, IL-10, MCP-1, INF-γ, and TNF-α were measured in cell culture supernatants from RAW264.7 cells and plasma from mice injected with LPS or P. aeruginosa (with or without peptide treatment) using the Cytometric bead array; Mouse Inflammation Kit (Becton Dickinson AB) according to the manufacturer's instructions. All plasma samples were stored at −20° C. before the analysis.

KYEITTIHNLFRKLTHRLFRRNFGYTLR [KYE28]
reduced: IL-10 production | MCP-1 production | TNF-α production
